According to patent US20240366770A1, “DEGRADATION OF BRUTON'S TYROSINE KINASE (BTK) BY CONJUGATION OF BTK INHIBITORS WITH E3 LIGASE LIGAND AND METHODS OF USE” (BeiGene Switzerland GmbH, priority 2021, published 2024):
Where two headings read alike, the source gives them in different places.

Key:
[1] = biological target: T1, BTK (Homo sapiens, UniProt Q06187); assay: BTK degradation in TMD-8 cells (HTRF assay); type: cell-based; conditions: 6 h treatment, IC50 (DC50) of BTK degradation
T1 construct: High control=Cell group with added DMSO and without compound, indicating microplate readings without BTK degradation; endogenous in cells; host or cells: TMD-8
Procedure, shortened: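 BTK remaining after compound treatment was measured by HTRF (337 nm excitation, 665/620 nm emission) in lysates of TMD-8 cells. Cells were exposed for 6 h to eight 6-fold-spaced concentrations in 0.2% DMSO. DC50 values were obtained from a Hill-equation fit (top, bottom, slope) of % inhibition.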

[2] = tested on: HEK-293 cells; assay: HEK-293 cytotoxicity detection (CellTiter-Glo); type: cell-based
Procedure, shortened: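 Four-parameter logistic fitting of percent inhibition versus concentration gives IC50. Luminescent ATP read-out (CellTiter-Glo) after 72 h compound treatment of HEK-293 cells, 8 doses in 4-fold steps from a 5 mM 500× DMSO stock, final DMSO 0.2%.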

[3] = Homo sapiens, HEK-293 cells, 72 h incubation, CellTiter-Glo luminescence, IC50 of cell proliferation inhibition, read-out: HEK293

T1 sequence (Q06187 whole entry): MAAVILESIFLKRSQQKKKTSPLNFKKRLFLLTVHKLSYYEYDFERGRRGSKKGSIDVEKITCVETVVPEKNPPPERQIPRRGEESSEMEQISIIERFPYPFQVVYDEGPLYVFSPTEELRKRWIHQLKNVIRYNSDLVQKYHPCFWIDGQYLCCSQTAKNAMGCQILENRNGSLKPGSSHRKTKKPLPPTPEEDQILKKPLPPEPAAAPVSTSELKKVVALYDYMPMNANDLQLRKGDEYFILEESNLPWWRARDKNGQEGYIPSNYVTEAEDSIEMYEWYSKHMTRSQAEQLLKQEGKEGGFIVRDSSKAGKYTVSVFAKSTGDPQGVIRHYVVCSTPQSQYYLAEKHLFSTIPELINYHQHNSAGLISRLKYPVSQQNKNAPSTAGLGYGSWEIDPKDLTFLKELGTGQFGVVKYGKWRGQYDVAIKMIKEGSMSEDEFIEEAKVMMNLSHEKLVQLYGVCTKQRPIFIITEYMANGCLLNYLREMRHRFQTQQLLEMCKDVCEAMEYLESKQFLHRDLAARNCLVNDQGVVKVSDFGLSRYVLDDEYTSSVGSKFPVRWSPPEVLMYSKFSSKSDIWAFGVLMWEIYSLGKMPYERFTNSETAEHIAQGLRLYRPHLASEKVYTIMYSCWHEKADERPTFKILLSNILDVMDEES

Structure (SMILES)	DC50 [1]	IC50 [2, 3]	IC50 ([2]; Homo sapiens, HEK293, 72 h, read-out: HEK293 (nM))	IC50 ([2]; HEK-293 cells, 72 h incubation, CellTiter-Glo luminescence, IC50 of cell proliferation inhibition, read-out: HEK293)
Cc1cc(-c2ncnc3[nH]c4cc(N5CCN(C6CN(C7CN(c8ccc(N9CCC(=O)NC9=O)cc8)C7)C6)CC5)ccc4c23)ccc1[C@@H](C)NC(=O)c1nc(C2(C)CC2)no1 [Example 122, (R)—N-(1-(4-(7-(4-(1′-(4-(2,4-dioxotetrahydropyrimidin-1(2H)-yl)phenyl)-[1,3′-biazetidin]-3-yl)piperazin-1-yl)-9H-pyrimido[4,5-b]indol-4-yl)-2-methylphenyl)ethyl)-3-(1-methylcyclopropyl)-1,2,4-oxadiazole-5-carboxamide]	0.395 nM	> 10000 nM		
Cc1cc(-c2ncnc3[nH]c4cc(N5CCN(CCc6ccc7c(c6)C6(CC6)C(=O)N7C6CCC(=O)NC6=O)CC5)ccc4c23)ccc1[C@@H](C)NC(=O)c1nc(C2(C)CC2)no1 (stereo partly drawn) [Example 123, N-((1R)-1-(4-(7-(4-(2-(1′-(2,6-dioxopiperidin-3-yl)-2′-oxospiro[cyclopropane-1,3′-indolin]-5′-yl)ethyl)piperazin-1-yl)-9H-pyrimido[4,5-b]indol-4-yl)-2-methylphenyl)ethyl)-3-(1-methylcyclopropyl)-1,2,4-oxadiazole-5-carboxamide]	0.192 nM		> 10000 nM	
Cc1cc(-c2ncnc3[nH]c4cc(N5CCN(CCc6cccc7c6C6(CC6)C(=O)N7C6CCC(=O)NC6=O)CC5)ccc4c23)ccc1[C@@H](C)NC(=O)c1nc(C2(C)CC2)no1 (stereo partly drawn) [Example 124, N-((1R)-1-(4-(7-(4-(2-(1′-(2,6-dioxopiperidin-3-yl)-2′-oxospiro[cyclopropane-1,3′-indolin]-4′-yl)ethyl)piperazin-1-yl)-9H-pyrimido[4,5-b]indol-4-yl)-2-methylphenyl)ethyl)-3-(1-methylcyclopropyl)-1,2,4-oxadiazole-5-carboxamide]	0.838 nM	> 10000 nM		
Cc1cc(-c2ncnc3[nH]c4cc(N5CCN(C6CC(c7ccc(N8CCC(=O)NC8=O)cc7)C6)CC5)ccc4c23)ccc1[C@@H](C)NC(=O)c1nc(C2(C)CC2)no1 (stereo partly drawn) [Example 125, (R)—N-(1-(4-(7-(4-(3-(4-(2,4-dioxotetrahydropyrimidin-1(2H)-yl)phenyl)cyclobutyl)piperazin-1-yl)-9H-pyrimido[4,5-b]indol-4-yl)-2-methylphenyl)ethyl)-3-(1-methylcyclopropyl)-1,2,4-oxadiazole-5-carboxamide]	0.197 nM	> 10000 nM		
Cc1cc(-c2ncnc3[nH]c4cc(N5CCN(CC6CN(c7ccc(N8CCC(=O)NC8=O)cc7)C6)CC5)ccc4c23)ccc1[C@@H](C)NC(=O)c1nc(C2(C)CC2)no1 [Example 126, (R)—N-(1-(4-(7-(4-((1-(4-(2,4-dioxotetrahydropyrimidin-1(2H)-yl)phenyl)azetidin-3-yl)methyl)piperazin-1-yl)-9H-pyrimido[4,5-b]indol-4-yl)-2-methylphenyl)ethyl)-3-(1-methylcyclopropyl)-1,2,4-oxadiazole-5-carboxamide]	0.449 nM	> 10000 nM		

Now from value to compound, other results behind:

DC50 [1]	Structure (SMILES)	IC50 [2, 3]	IC50 ([2]; Homo sapiens, HEK293, 72 h, read-out: HEK293 (nM))	IC50 ([2]; HEK-293 cells, 72 h incubation, CellTiter-Glo luminescence, IC50 of cell proliferation inhibition, read-out: HEK293)
2.49 nM	COc1cc2c(cc1N1CCN([C@H]3C[C@@H](c4ccc(O[C@@H]5CCC(=O)NC5=O)cc4)C3)CC1)[nH]c1ncnc(-c3ccc([C@@H](C)NC(=O)c4nc(C(C)(C)C)no4)c(C)c3)c12 [Example 127, 3-(tert-butyl)-N—((R)-1-(4-(7-(4-((1S,3s)-3-(4-(((R)-2,6-dioxopiperidin-3-yl)oxy)phenyl)cyclobutyl)piperazin-1-yl)-6-methoxy-9H-pyrimido[4,5-b]indol-4-yl)-2-methylphenyl)ethyl)-1,2,4-oxadiazole-5-carboxamide]	> 10000 nM		
2.12 nM	COc1cc2c(cc1N1CCN([C@H]3C[C@@H](c4ccc(O[C@H]5CCC(=O)NC5=O)cc4)C3)CC1)[nH]c1ncnc(-c3ccc([C@@H](C)NC(=O)c4nc(C(C)(C)C)no4)c(C)c3)c12 [Example 128, 3-(tert-butyl)-N—((R)-1-(4-(7-(4-((1R,3s)-3-(4-(((S)-2,6-dioxopiperidin-3-yl)oxy)phenyl)cyclobutyl)piperazin-1-yl)-6-methoxy-9H-pyrimido[4,5-b]indol-4-yl)-2-methylphenyl)ethyl)-1,2,4-oxadiazole-5-carboxamide]			> 10000 nM
> 2000 nM	C[C@H]1CC[C@@H](NC(=O)c2nc(C(C)(C)C)no2)CN1c1ncnc2[nH]c3cc(N4CCN(CC5CCN(c6ccc(N7CCC(=O)NC7=O)cc6)CC5)CC4)ccc3c12 [Example 129, 3-(tert-butyl)-N-((3R,6S)-1-(7-(4-((1-(4-(2,4-dioxotetrahydropyrimidin-1(2H)-yl)phenyl)piperidin-4-yl)methyl)piperazin-1-yl)-9H-pyrimido[4,5-b]indol-4-yl)-6-methylpiperidin-3-yl)-1,2,4-oxadiazole-5-carboxamide]	2040 nM		
63.2 nM	C[C@@H](NC(=O)c1nc(C(C)(C)C)no1)C1CCN(c2ncnc3[nH]c4cc(N5CCN(CC6CCN(c7ccc(N8CCC(=O)NC8=O)cc7)CC6)CC5)ccc4c23)CC1 [Example 130, (R)-3-(tert-butyl)-N-(1-(1-(7-(4-((1-(4-(2,4-dioxotetrahydropyrimidin-1(2H)-yl)phenyl)piperidin-4-yl)methyl)piperazin-1-yl)-9H-pyrimido[4,5-b]indol-4-yl)piperidin-4-yl)ethyl)-1,2,4-oxadiazole-5-carboxamide]	> 10000 nM		
27.5 nM	CC(C)(C)c1noc(C(=O)NC(C)(C)C2CCN(c3ncnc4[nH]c5cc(N6CCN(CC7CCN(c8ccc(N9CCC(=O)NC9=O)cc8)CC7)CC6)ccc5c34)CC2)n1 [Example 131, 3-(tert-butyl)-N-(2-(1-(7-(4-((1-(4-(2,4-dioxotetrahydropyrimidin-1(2H)-yl)phenyl)piperidin-4-yl)methyl)piperazin-1-yl)-9H-pyrimido[4,5-b]indol-4-yl)piperidin-4-yl)propan-2-yl)-1,2,4-oxadiazole-5-carboxamide]	> 10000 nM		
> 2000 nM	Cc1cc(-c2ncnc3[nH]c4c(c23)CCC(N2CCN(CC3CCN(c5ccc(N6CCC(=O)NC6=O)cc5)CC3)CC2)C4)ccc1[C@@H](C)NC(=O)c1nc(C(C)(C)C)no1 (stereo partly drawn) [Example 132, 3-(tert-butyl)-N-((1R)-1-(4-(7-(4-((1-(4-(2,4-dioxotetrahydropyrimidin-1(2H)-yl)phenyl)piperidin-4-yl)methyl)piperazin-1-yl)-6,7,8,9-tetrahydro-5H-pyrimido[4,5-b]indol-4-yl)-2-methylphenyl)ethyl)-1,2,4-oxadiazole-5-carboxamide]	> 10000 nM		
> 2000 nM	Cc1cc(-c2ncnc3[nH]c4c(c23)CCC(N2CCN(C3CC(c5ccc([C@H]6CCC(=O)NC6=O)cc5)C3)CC2)C4)ccc1[C@@H](C)NC(=O)c1nc(C(C)(C)C)no1 (stereo partly drawn) [Example 133, 3-(tert-butyl)-N-((1R)-1-(4-(7-(4-(3-(4-((R)-2,6-dioxopiperidin-3-yl)phenyl)cyclobutyl)piperazin-1-yl)-6,7,8,9-tetrahydro-5H-pyrimido[4,5-b]indol-4-yl)-2-methylphenyl)ethyl)-1,2,4-oxadiazole-5-carboxamide]	> 10000 nM		
